According to patent US9688722B2, “Substrates and inhibitors of prolyl oligopeptidase and methods of use” (The Board of Regents of the University of Oklahoma, priority 2012, dated 2017):
Entries after “also recorded” stand apart in the source; their conditions may differ. Where two headings read alike, the source gives them in different places. One block for each compound: values may come before it. Non-standard residues stand in square brackets, D forms with d. Residues, ends and D or L forms follow the SMILES beside them. *: point of attachment. AFC = O=c1cc(C(F)(F)F)c2ccc(N*)cc2o1; Tic = O=C(O)[C@@H]1Cc2ccccc2CN1; AMC = Cc1cc(=O)oc2cc(N*)ccc12; Cbz = O=C(OCc1ccccc1)*; AEEA = NCCOCCOCC(=O)O

Columns and labels:
APCE/FAP [1] = biological target: T1, APCE/FAP (Homo sapiens, UniProt Q12884); assay: APCE/FAP inhibition constants (Ki) with Tic-Pro-AFC substrate; format: biochemical; conditions: for Ki: substrate Tic-Pro-AFC
T1 construct: absence of an about 26-residue amino terminal peptide constituting the transmembrane and intracytosolic domains; from tissue
T1 sequence (Q12884 24-760 limits assumed): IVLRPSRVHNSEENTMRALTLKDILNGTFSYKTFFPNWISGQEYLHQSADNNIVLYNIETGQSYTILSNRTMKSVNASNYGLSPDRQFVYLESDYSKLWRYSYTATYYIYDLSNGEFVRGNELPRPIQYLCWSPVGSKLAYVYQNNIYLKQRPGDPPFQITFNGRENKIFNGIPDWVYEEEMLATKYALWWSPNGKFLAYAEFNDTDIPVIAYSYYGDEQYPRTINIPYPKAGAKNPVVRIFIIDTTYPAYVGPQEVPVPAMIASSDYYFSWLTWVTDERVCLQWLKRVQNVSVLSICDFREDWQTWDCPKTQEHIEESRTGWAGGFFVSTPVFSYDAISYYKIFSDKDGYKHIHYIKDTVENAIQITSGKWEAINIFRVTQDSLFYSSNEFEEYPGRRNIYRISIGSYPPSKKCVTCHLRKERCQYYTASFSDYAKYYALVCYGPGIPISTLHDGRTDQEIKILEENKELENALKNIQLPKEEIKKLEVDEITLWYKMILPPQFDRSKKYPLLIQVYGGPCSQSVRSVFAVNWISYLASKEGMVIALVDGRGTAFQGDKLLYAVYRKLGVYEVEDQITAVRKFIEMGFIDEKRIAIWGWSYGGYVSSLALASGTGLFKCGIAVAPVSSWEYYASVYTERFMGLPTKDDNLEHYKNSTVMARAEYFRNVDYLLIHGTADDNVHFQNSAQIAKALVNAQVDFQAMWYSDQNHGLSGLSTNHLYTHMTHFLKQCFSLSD
Experimental: (§1) For accurate assessment of kinetic parameters, saturating concentrations of substrate were used. For standard curves, dilutions of AFC (7-amino-4-trifluoromethylcoumarin) were prepared in the same assay buffer and corresponding fluorescence was measured.

DPPIV [2] = biological target: T2, DPPIV (Homo sapiens, UniProt P27487); assay: DPPIV inhibition constants (Ki) with Tic-Pro-AFC substrate; format: biochemical; conditions: for Ki: substrate Tic-Pro-AFC; for Selectivity Ki (DPPIV) / Ki (APCE-FAP): ratio of Ki values
T2 sequence (P27487 whole entry, species assumed): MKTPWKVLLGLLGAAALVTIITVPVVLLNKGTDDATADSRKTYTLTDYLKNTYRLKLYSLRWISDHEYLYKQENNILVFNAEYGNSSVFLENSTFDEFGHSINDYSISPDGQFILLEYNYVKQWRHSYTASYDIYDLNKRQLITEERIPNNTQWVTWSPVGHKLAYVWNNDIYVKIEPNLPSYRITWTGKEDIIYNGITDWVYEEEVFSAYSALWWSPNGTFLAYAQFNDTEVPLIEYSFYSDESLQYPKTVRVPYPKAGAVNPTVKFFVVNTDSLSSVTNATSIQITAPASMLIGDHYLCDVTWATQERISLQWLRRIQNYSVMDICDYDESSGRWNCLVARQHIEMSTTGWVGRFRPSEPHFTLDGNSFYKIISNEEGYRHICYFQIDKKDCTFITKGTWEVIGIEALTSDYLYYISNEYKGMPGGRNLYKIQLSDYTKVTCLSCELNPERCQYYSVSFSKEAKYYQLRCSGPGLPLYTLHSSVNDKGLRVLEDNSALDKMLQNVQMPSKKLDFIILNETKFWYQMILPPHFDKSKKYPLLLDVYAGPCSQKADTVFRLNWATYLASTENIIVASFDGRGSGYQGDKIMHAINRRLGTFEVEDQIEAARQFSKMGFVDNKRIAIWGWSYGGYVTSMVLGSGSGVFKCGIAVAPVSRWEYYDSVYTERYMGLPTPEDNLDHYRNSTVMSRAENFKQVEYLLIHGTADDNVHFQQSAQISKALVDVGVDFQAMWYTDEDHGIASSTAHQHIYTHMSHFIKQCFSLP
Experimental: as §1

POP [3] = biological target: T3, POP (Homo sapiens, UniProt P48147); assay: POP inhibition constants (Ki) with Tic-Pro-AFC substrate; format: biochemical; conditions: for Selectivity Ki (POP) / Ki (APCE/FAP): ratio of Ki values; for Ki: substrate Tic-Pro-AFC
T3 sequence (P48147 1-710): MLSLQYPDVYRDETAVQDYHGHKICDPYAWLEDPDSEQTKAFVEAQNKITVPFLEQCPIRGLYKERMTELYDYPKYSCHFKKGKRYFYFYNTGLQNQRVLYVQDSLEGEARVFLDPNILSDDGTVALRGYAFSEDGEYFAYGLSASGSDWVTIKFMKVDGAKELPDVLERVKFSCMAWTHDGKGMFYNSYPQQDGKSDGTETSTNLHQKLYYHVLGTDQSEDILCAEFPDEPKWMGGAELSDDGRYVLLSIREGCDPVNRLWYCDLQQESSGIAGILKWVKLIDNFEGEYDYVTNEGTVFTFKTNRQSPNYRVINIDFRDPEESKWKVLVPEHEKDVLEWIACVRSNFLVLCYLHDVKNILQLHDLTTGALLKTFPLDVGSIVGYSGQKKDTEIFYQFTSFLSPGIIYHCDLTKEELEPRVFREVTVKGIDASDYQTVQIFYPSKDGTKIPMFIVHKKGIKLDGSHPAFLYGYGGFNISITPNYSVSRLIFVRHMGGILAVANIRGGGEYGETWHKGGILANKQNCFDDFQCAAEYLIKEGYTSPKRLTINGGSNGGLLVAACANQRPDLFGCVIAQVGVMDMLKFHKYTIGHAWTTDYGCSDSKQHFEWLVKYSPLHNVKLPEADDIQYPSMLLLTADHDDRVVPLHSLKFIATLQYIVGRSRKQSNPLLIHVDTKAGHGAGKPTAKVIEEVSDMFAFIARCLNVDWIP
Experimental: as §1

Aqueous solubility = format: physicochemical; conditions: result in words
Experimental: The specific POP inhibitor, J94 (acetyl-Lys-Leu-Arg-(L)boroPro (Ki<100 nM)); and the substrate, C95 (acetyl-Arg-AEEA-Gly-Pro-AMC), were designed, synthesized and characterized by us as previously reported. […] The inhibitors (J94 and M83) were dissolved in Hanks Balanced Salt Solution (HBSS; Gibco) at 1 mM and stored at −20° C. The substrate (C95) was dissolved in HBSS at 2.5 mM and stored at 4° C. […] Tic-Pro-AFC, a prolyl-specific fluorescent substrate, was supplied by Vantia (Southampton, England).

DPPIV [4] = biological target: T2, DPPIV; assay: Cleavage kinetics of fluorescent substrates by DPPIV; format: biochemical; conditions: for cleavage of substrate by DPPIV: result in words
Experimental: (§2) APCE (^˜4 μg), DPPIV (^˜2 μg) or POP (^˜2 μg) was incubated in 25 mM sodium phosphate buffer, pH 7.5, containing 1.0 mM EDTA and 2% methanol in a total volume of 200 μl for 20 min at 22° C. Using Tic-Pro-AFC (10-300 μM for APCE, 5-200 μM for DPPIV, and 40-800 μM for POP), fluorescence was monitored with time at excitation/emission wavelengths of 400/508 nm, using a black-sided 96-well plate in a BIO-TEK FL600 fluorescence plate reader. For accurate assessment of kinetic parameters, saturating concentrations of substrate were used. For standard curves, dilutions of AFC (7-amino-4-trifluoromethylcoumarin) were prepared in the same assay buffer and corresponding fluorescence was measured.
(§3) Characterization of Tic-Pro-AFC as substrate: A new substrate, Tic-Pro-AFC, was used for assessing APCE/FAP, DPPIV and POP, each belonging to the same clade of prolyl-specific serine proteinases and each with activity towards unique substrates. […] Based on Ki, Km and kcat values in Tables 6 and 7, Tic-Pro-AFC was readily cleaved by each enzyme, with kcat/Km for APCE/FAP being slightly higher than POP and slightly lower than DPPIV. […] Thus, Tic-Pro-AFC was chosen as the substrate for comparing the potency and selectivity of the inhibitors towards APCE/FAP, DPPIV, or POP.

APCE/FAP [5] = biological target: T1, APCE/FAP; assay: Cleavage kinetics of fluorescent substrates by APCE/FAP; format: biochemical
Experimental: as §2, §3

[6] = test system: HCT116 human colon cancer xenografts; assay: HCT116 human colon cancer xenografts in immunodeficient mice; format: in vivo; conditions: 28-day treatment period
HMVEC-d = assay: Tube formation assay of HMVEC-d on Matrigel; format: cell-based, human; conditions: 50 μM inhibitor
Experimental: For tube formation assays, Matrigel™ (BD Biosciences, San Jose, Calif.) 80 μl was added to black-sided, clear bottom 96-well plates as above and allowed to gel at 37° C. for 30 minutes. Then 15,000 HMVEC-d in EC media without serum were added and allowed to settle for 1 hour. […] The reader was maintained at 37° C. and fluorescence was measured with time for 18 hours.

POP [7] = biological target: T3, POP; assay: Cleavage kinetics of fluorescent substrates by POP; format: biochemical; conditions: for Km / kcat: substrate cleaved by POP
Experimental: as §2, §3

[8] = before cyclizing and losing inhibitory activity; cited from earlier work
DPPIV [9] = biological target: T2, DPPIV; conditions: result in words; cited from earlier work

Compound: CC(=O)N[C@@H](CCCNC(=N)N)C(=O)NCCOCCOCC(=O)N[C@H](C)C(=O)N1CCC[C@@H]1B(O)O (single isomer, unassigned) [Ac-Arg-peg-D-Ala-D-boroPro]
Ki (APCE/FAP [1]): 189 nM | Ki (DPPIV [2]): 20500 nM

Compound: CC(=O)N[C@@H](CCCNC(=N)N)C(=O)NCC(=O)NCC(=O)N1CCC[C@H]1B(O)O [Ac-Arg-Gly-Gly-L-boroPro]
Selectivity Ki (POP) / Ki (APCE/FAP) (POP [3]): 0.1 | Ki (POP [3]): 1.6 nM

Compound: CC(=O)N[C@@H](CCCNC(=N)N)C(=O)NCCOCCOCC(=O)N[C@H](CC(=O)O)C(=O)N1CCC[C@H]1B(O)O [Ac-Arg-peg-D-Asp-L-boroPro]
Ki (APCE/FAP [1]): 1380 nM | Selectivity Ki (POP) / Ki (APCE/FAP) (POP [3]): 0.02 | Ki (POP [3]): 23.9 nM | Selectivity Ki (DPPIV) / Ki (APCE-FAP) (DPPIV [2]): 5.2 | Ki (DPPIV [2]): 7130 nM

Compound: CC(=O)N[C@@H](CCCCN)C(=O)N[C@@H](CC(C)C)C(=O)N[C@@H](CCCNC(=N)N)C(=O)N1CCC[C@H]1C(=O)Nc1ccc2c(C)cc(=O)oc2c1 [Compound L96, acetyl-Lys-Leu-Arg-Pro-AMC] (Ac-KLRP-{AMC})
cleavage of substrate by DPPIV (DPPIV [4]): Neither DPPIV nor APCE/FAP cleaved | cleavage of substrate by APCE/FAP (APCE/FAP [5]; result in words): Neither DPPIV nor APCE/FAP cleaved | Km (POP [7]): 30 ± 3 µM | kcat (POP [7]): 2.4 ± 0.1 s⁻¹

Compound: N[C@@H](CCC(=O)O)C(=O)N1CCC[C@H]1B(O)O [Glu-boroPro, glutamyl-proline boronic acid]
plasma half-life [8]: exceptionally short | inhibition of DPPIV (DPPIV [9]): also inhibits

Compound: CC(C)[C@H](N)C(=O)N1CCC[C@H]1B(O)O [Val-boroPro]
inhibition of DPPIV (DPPIV [9]): also inhibit

Compound: Ac-Arg-Gly-Gly-DL-boroPro
Ki (APCE/FAP [1]): 22.9 nM | Selectivity Ki (DPPIV) / Ki (APCE-FAP) (DPPIV [2]): 14.9 | Ki (DPPIV [2]): 341 nM

Compound: Ac-Arg-peg-D-Ala-DL(25:75%)-boroPro
Ki (APCE/FAP [1]): 7.7 nM

Compound: Ac-Arg-peg-D-Ala-DL(50:50%)-boroPro
Ki (APCE/FAP [1]): 9.5 nM | Selectivity Ki (DPPIV) / Ki (APCE-FAP) (DPPIV [2]): 1176 | Ki (DPPIV [2]): 11200 nM

Compound: Ac-Arg-peg-D-Ala-DL(75:25%)-boroPro
Ki (APCE/FAP [1]): 18.3 nM

Compound: Ac-Arg-peg-Gly-DL-boroPro
Ki (APCE/FAP [1]): 3.1 nM | Selectivity Ki (DPPIV) / Ki (APCE-FAP) (DPPIV [2]): 371 | Ki (DPPIV [2]): 1150 nM

Further lines, with some results ahead:

Ki (APCE/FAP [1]): 1.8 nM | Selectivity Ki (POP) / Ki (APCE/FAP) (POP [3]): 1.2 | Ki (POP [3]): 2.1 nM | Ki (DPPIV [2]): 440 nM
Compound: CC(=O)N[C@@H](CCCNC(=N)N)C(=O)NCCOCCOCC(=O)NCC(=O)N1CCC[C@H]1B(O)O [Ac-Arg-peg-Gly-L-boroPro]

Ki (APCE/FAP [1]): 2.7 nM | Selectivity Ki (POP) / Ki (APCE/FAP) (POP [3]): 1.1 | Ki (POP [3]): 2.9 nM | Ki (DPPIV [2]): 861 nM
Compound: CC(=O)N[C@@H](CCCNC(=N)N)C(=O)NCCOCCOCC(=O)N[C@@H](CO)C(=O)NCC(=O)N1CCC[C@H]1B(O)O [Ac-Arg-peg-Ser-Gly-L-boroPro]

solubility in aqueous buffers (Aqueous solubility): soluble in aqueous buffers | cleavage of substrate by DPPIV (DPPIV [4]): neither cleaved
Compound: CC(=O)N[C@@H](CCCNC(=N)N)C(=O)NCCOCCOCC(=O)NCC(=O)N1CCC[C@H]1C(=O)Nc1ccc2c(C)cc(=O)oc2c1 [Compound C95, acetyl-Arg-AEEA-Gly-Pro-AMC] (Ac-R[AEEA]GP-{AMC})
relative rate of cleavage by FAP and POP (APCE/FAP [5]; FAP and POP at equimolar concentrations): equivalent rates; also recorded: cleaved at equal rates by FAP or POP

solubility in aqueous buffers (Aqueous solubility): soluble in aqueous buffers | Ki (POP [3]): < 100 nM | inhibition of DPPIV (DPPIV [2]; result in words): nor was it inhibited
Compound: CC(=O)N[C@@H](CCCCN)C(=O)N[C@@H](CC(C)C)C(=O)N[C@@H](CCCNC(=N)N)C(=O)N1CCC[C@H]1B(O)O [Compound J94, acetyl-Lys-Leu-Arg-(L)boroPro]
inhibition of FAP (APCE/FAP [1]; result in words): none towards FAP; also recorded: no effect on FAP | diminished cancer growth [6]: ~75% | formation of capillary-like tubes (HMVEC-d): inhibited formation of capillary-like tubes; also recorded: abrogated the genesis of capillary-like tubes

cleavage of substrate by POP (POP [7]; result in words): not cleaved by POP
Compound: Cc1cc(=O)oc2cc(NC(=O)[C@@H]3CCCN3C(=O)CN)ccc12 [GP-AMC] (H-Gly-Pro-{AMC})

Km (DPPIV [4]; substrate cleaved by DPPIV): 33 ± 2 µM | kcat (DPPIV [4]; substrate cleaved by DPPIV): 1.49 ± 0.12 s⁻¹ | Km (APCE/FAP [5]; substrate cleaved by APCE/FAP): 53 ± 5 µM | kcat (APCE/FAP [5]; substrate cleaved by APCE/FAP): 1.19 ± 0.11 s⁻¹ | Km (POP [7]): 161 ± 12 µM | kcat (POP [7]): 0.76 ± 0.01 s⁻¹
Compound: O=C(Nc1ccc2c(C(F)(F)F)cc(=O)oc2c1)[C@@H]1CCCN1C(=O)[C@@H]1Cc2ccccc2CN1 [Tic-Pro-AFC] (H-[Tic]-Pro-{AFC})

cleavage of substrate by DPPIV (DPPIV [4]): not cleaved by DPPIV
Compound: Cc1cc(=O)oc2cc(NC(=O)[C@@H]3CCCN3C(=O)CNC(=O)OCc3ccccc3)ccc12 [Z-GP-AMC, benzyloxycarbonyl (Z)-GP-AMC] (Cbz-Gly-Pro-{AMC})
